According to patent US8394792B2, “Heterocyclic derivatives” (C&C Research Laboratories, priority 2008, dated 2013):
In brackets after ≈: the same amount, converted by molar mass. Counter-ions that a name gives are not always drawn. Like-named read-outs stand apart in the source and are kept apart here.

Tests used:
[1] = Test for solubility according to pH; type: physicochemical; conditions: 37° C. 2 hours; for solubility at 2 h: thermodynamic from solid
hURAT1 = molecular target: T1, hURAT1 (Homo sapiens, UniProt Q96S37); assay: Test for inhibiting urate reuptake activity via hURAT1 (uric acid transport assay in hURAT1-overexpressed HEK293 cell line); type: cell-based; conditions: hURAT1-overexpressed HEK293 cells, [14C]-uric acid uptake, 100 μM uric acid
T1 construct: expressed in transfected cells; host or cells: HEK293 (human kidney cell line), transient transfection with Fugene6
T1 sequence (Q96S37 1-553): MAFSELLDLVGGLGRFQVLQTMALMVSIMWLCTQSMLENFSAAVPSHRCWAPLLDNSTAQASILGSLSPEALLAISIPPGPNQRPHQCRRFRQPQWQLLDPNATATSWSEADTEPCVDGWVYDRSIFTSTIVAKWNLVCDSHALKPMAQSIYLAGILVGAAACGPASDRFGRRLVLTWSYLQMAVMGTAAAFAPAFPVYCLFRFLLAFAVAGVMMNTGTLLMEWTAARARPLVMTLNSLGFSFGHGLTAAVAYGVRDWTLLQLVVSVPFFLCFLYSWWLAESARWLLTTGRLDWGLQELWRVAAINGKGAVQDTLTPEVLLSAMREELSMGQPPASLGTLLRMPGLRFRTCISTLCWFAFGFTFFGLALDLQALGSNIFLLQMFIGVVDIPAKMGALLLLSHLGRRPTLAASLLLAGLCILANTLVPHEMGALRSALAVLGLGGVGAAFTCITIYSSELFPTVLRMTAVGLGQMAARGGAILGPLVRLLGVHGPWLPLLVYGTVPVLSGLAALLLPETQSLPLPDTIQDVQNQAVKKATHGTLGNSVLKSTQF
Experimental: Test for Inhibiting Urate Reuptake Activity Via hURAT1
[hURAT1 Overexpression by Transient Transfection in Human Kidney Cell Line]
A human kidney cell line, HEK293 was incubated by using OptiMEM medium in 100 mm dish at (3*10^6 cells) for 24 hours. In order for the expression of hURAT1, a transfection mixture solution (Fugene6 18 μl:hURAT1 DNA 6 μg=3:1, in 600 μl OptiMEM medium/dish) was prepared and kept for 15 minutes at room temperature. To each dish, 600 μl of the mixture solution was injected and then incubated in 37[…] cell incubator for 24 hours. The hURAT1-overexpressed HEK293 cell line was trypsinized and cells were harvested. Cells were resuspended in medium and seeded at 6*10^5 cells/well and incubated for 24 hours in 24-well plate which was surface-coated with Poly-D-Lysine.
[Uric Acid Transport Assay in hURAT1-Overexpressed HEK293 Cell Line]
For each concentration, the stock sample solution was diluted in PBS (1 μl in 800 μl of PBS) as 1.25 fold concentrated working sample solution to obtain final concentrations of 0.01, 0.1, 1 and 10 μM. The hURAT1-overexpressed cell line was washed with 1 ml of PBS. After washing, PBS was discarded and the sample solution was diluted by 1.25 fold with PBS. Preincubation of cells with 200 μl/well of sample solution made above was conducted for 30 minutes in 37[…] cell incubator. After the incubation, each well was treated with 50 μl of PBS containing 500 μM [^14C]-uric acid (final 100 μM of uric acid/well). Cells were incubated for 2 minutes. The cells were washed twice with 1 ml of PBS.
To measure the uric acid uptake, each well was treated with 150 μl of M-per buffer (PIERCE) and kept in 37° C. cell incubator for 30 minutes to make cell lysates. 150 μl of cell lysates was transferred into test tube and 4 ml of scintillation cocktail was added. CPM value of [^14C]-uric acid absorbed into cells was detected using liquid scintillation counter. IC50 for the inhibition of uric acid uptake by each test sample was analyzed by computational numerical processing.

CYP2C9 = CYP2C9 (Homo sapiens, UniProt P11712); assay: biochemical
Sequence of CYP2C9 (P11712 whole entry): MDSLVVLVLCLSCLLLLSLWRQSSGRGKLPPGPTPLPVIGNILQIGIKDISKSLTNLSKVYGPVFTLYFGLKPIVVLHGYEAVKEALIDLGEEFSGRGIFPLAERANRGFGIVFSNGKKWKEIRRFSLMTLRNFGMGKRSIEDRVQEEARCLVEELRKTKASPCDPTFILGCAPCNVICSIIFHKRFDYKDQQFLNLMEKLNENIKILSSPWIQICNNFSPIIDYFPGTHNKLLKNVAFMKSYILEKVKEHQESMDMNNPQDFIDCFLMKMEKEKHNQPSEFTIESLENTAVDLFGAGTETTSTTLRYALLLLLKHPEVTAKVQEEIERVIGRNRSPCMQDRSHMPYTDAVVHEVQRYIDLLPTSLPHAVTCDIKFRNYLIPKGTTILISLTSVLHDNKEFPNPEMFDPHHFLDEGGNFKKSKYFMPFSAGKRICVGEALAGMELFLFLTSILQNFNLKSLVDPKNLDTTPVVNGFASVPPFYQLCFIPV

Cebus monkey = assay: Test for uricosuric effect in Cebus monkey; type: in vivo; conditions: comparison test
[2] = pH 1.2, simulated gastric fluid, first solution pH about 1.2, 2 mg/mL, read-out: Solubility (μg/mL) pH 1.2
[3] = pH 6.8, aqueous buffer, second solution pH about 6.8, 2 mg/mL, read-out: Solubility (μg/mL) pH 6.8
[4] = 37 °C, pH 1.2, simulated gastric fluid, first solution pH about 1.2, 2 mg/mL, read-out: Solubility (μg/mL) pH 1.2
[5] = 37 °C, pH 6.8, aqueous buffer, second solution pH about 6.8, 2 mg/mL, read-out: Solubility (μg/mL) pH 6.8
[6] = read-out: IC50 (μM) hURAT, level of uric acid reuptake inhibition
[7] = second solution pH about 6.8, 2 mg/mL

SMILES | IC50 (CYP2C9) [nM] | solubility at 2 h [1, 4] [µg/mL] | solubility at 2 h [1, 5] [µg/mL] | IC50 (hURAT1; [6]) [µM] | Solubility (μg/mL) pH 6.8 [1, 7] [μg/mL] | Solubility (μg/mL) pH 1.2 ([1]; first solution pH about 1.2, 2 mg/mL) [μg/mL] | solubility at 2 h [1, 2] [µg/mL] | solubility at 2 h [1, 3] [µg/mL] | IC50 (hURAT1; IC50 (μM) hURAT, level of uric acid reuptake inhibition) [µM] | enhanced uricosuric activity compared to the compound disclosed in WO2006/057460 (Cebus monkey) [%]
Br.O=C(c1cc(Br)c(O)c(Br)c1)N1CCOc2ccncc21 [Compound 3, (3,5-dibromo-4-hydroxy-phenyl)-(2,3-dihydro-pyrido[4,3-b][1,4]oxazin-4-yl)-methanone bromic acid salt] | 24500 |  |  |  |  |  | 1420 | 886 | 0.0165 | 180
Cc1ccc2c(n1)OCCN2C(=O)c1cc(Br)c(O)c(Br)c1 [Compound 7, (3,5-dibromo-4-hydroxy-phenyl)-(6-methyl-2,3-dihydro-pyrido[2,3-b][1,4]oxazin-1-yl)-methanone] | > 20000 | 106 (≈ 247 µM) | 109 (≈ 255 µM) | 0.3 |  |  |  |  |  | 
CC1(C)CN(C(=O)c2cc(Br)c(O)c(Br)c2)c2cnccc2O1 [Compound 8, (3,5-dibromo-4-hydroxy-phenyl)-(2,2-dimethyl-2,3-dihydro-pyrido[4,3-b][1,4]oxazin-4-yl)-methanone] | > 20000 | 986 (≈ 2230 µM) | 344 (≈ 778 µM) | 0.353 |  |  |  |  |  | 
O=C(c1ccc(O)c(C(F)(F)F)c1)N1CCOc2ccncc21 [Compound 12, (2,3-dihydro-pyrido[4,3-b][1,4]oxazin-4-yl)-(4-hydroxy-3-trifluoromethyl-phenyl)-methanone] | > 60000 | 1880 (≈ 5800 µM) | 132 (≈ 407 µM) | 0.0408 |  |  |  |  |  | 
Br.O=C(c1cc(Cl)c(O)c(Cl)c1)N1CCOc2ccncc21 [Compound 13, (3,5-dichloro-4-hydroxy-phenyl)-(2,3-dihydro-pyrido[4,3-b][1,4]oxazin-4-yl)-methanone bromic acid salt] | > 60000 |  |  | 0.337 |  |  | 1400 | 847 |  | 
O=C(c1cc(Cl)c(O)c([N+](=O)[O-])c1)N1CCOc2ccncc21 [Compound 14, (3-chloro-4-hydroxy-5-nitro-phenyl)-(2,3-dihydro-pyrido[4,3-b][1,4]oxazin-4-yl)-methanone] | 16600 | 1480 (≈ 4410 µM) | 747 (≈ 2230 µM) | 0.126 |  |  |  |  |  | 
O=C(c1cc(F)c(O)c(F)c1)N1CCOc2ccncc21 [Compound 29, (3,5-difluoro-4-hydroxy-phenyl)-(2,3-dihydro-pyrido[4,3-b][1,4]oxazin-4-yl)-methanone] | > 20000 | 1090 (≈ 3720 µM) | 382 (≈ 1310 µM) | 0.235 |  |  |  |  |  | 
O=C(c1cc(Br)c(O)c(Br)c1)N1CCOc2ccnc(Cl)c21 [Compound 30, (5-chloro-2,3-dihydro-pyrido[4,3-b][1,4]oxazin-4-yl)-(3,5-dibromo-4-hydroxy-phenyl)-methanone] | > 40000 | 7.2 (≈ 16.1 µM) | 332 (≈ 740 µM) | 0.028 |  |  |  |  |  | 
O=S(=O)(c1cc(Br)c(O)c(Br)c1)N1CCOc2ccncc21 [Compound 35-2, 2,6-dibromo-4-(2,3-dihydro-pyrido[4,3-b][1,4]oxazin-4-sulfonyl)-phenol] | > 20000 | 1460 (≈ 3240 µM) | 234 (≈ 519 µM) | 0.277 |  |  |  |  |  | 
O=C(c1cc(Cl)c(O)c([N+](=O)[O-])c1)N1CCOc2cnccc21 [Compound 36, (3-chloro-4-hydroxy-5-nitro-phenyl)-(2,3-dihydro-pyrido[3,4-b][1,4]oxazin-1-yl)-methanone] | 1930 | 1560 (≈ 4650 µM) | 743 (≈ 2210 µM) | 0.175 |  |  |  |  |  | 
O=C(c1cc(Cl)c(O)c(Cl)c1)N1CCOc2ccncc21 [Compound 39, (3,5-dichloro-4-hydroxy-phenyl)-(2,3-dihydro-pyrido[4,3-b][1,4]oxazin-4-yl)-methanone] | > 20000 | 1340 (≈ 4120 µM) | 480 (≈ 1480 µM) | 0.0884 |  |  |  |  |  | 
O=C(c1cc(Cl)c(O)c(Cl)c1)N1CCOc2cnccc21 [Compound 41, (3,5-dichloro-4-hydroxy-phenyl)-(2,3-dihydro-pyrido[3,4-b][1,4]oxazin-1-yl)-methanone] | > 20000 |  |  | 0.376 | 156.54 | 808.87 |  |  |  | 

Now from value to molecule, other results behind:

IC50 (CYP2C9) [nM] | solubility at 2 h [1, 4] [µg/mL] | solubility at 2 h [1, 5] [µg/mL] | IC50 (hURAT1; [6]) [µM] | Solubility (μg/mL) pH 6.8 [1, 7] [μg/mL] | Solubility (μg/mL) pH 1.2 ([1]; first solution pH about 1.2, 2 mg/mL) [μg/mL] | SMILES | solubility at 2 h [1, 2] [µg/mL] | solubility at 2 h [1, 3] [µg/mL] | IC50 (hURAT1; IC50 (μM) hURAT, level of uric acid reuptake inhibition) [µM] | enhanced uricosuric activity compared to the compound disclosed in WO2006/057460 (Cebus monkey) [%]
4500 | 1510 |  | 0.458 | 453 |  | O=C(c1cc(Cl)c(O)c(Cl)c1)N1CCOc2cnccc21 [Compound 15, (3,5-dichloro-4-hydroxy-phenyl)-(2,3-dihydro-pyrido[3,4-b][1,4]oxazin-1-yl)-methanone bromic acid salt] |  |  |  | 
9450 | < 0.1 | 153 (≈ 317 µM) | 0.0043 |  |  | O=C(c1cc(Br)c(O)c(Br)c1)N1CCOc2ncc(C(F)(F)F)cc21 [Compound 22-2, (3,5-dibromo-4-hydroxy-phenyl)-(7-trifluoromethyl-2,3-dihydro-pyrido[2,3-b][1,4]oxazin-1-yl)-methanone] |  |  |  | 
> 20000 | 1250 (≈ 2580 µM) | 134 (≈ 275 µM) | 0.363 |  |  | COC(=O)COc1c(Br)cc(C(=O)N2CCOc3ccncc32)cc1Br [Compound 24, (2,6-dibromo-4-(2,3-dihydro-pyrido[4,3-b][1,4]oxazin-4-carbonyl)-phenoxy]-acetic acid methyl ester] |  |  |  | 
> 20000 | 207 (≈ 484 µM) | 579 (≈ 1350 µM) | 0.012 |  |  | Cc1cnc2c(c1)N(C(=O)c1cc(Br)c(O)c(Br)c1)CCO2 [Compound 27-2, (3,5-dibromo-4-hydroxy-phenyl)-(7-methyl-2,3-dihydro-pyrido[2,3-b][1,4]oxazin-1-yl)-methanone] |  |  |  | 
> 20000 | 1930 (≈ 6640 µM) | 114 (≈ 393 µM) | 0.212 |  |  | O=C(c1ccc(O)c(Cl)c1)N1CCOc2ccncc21 [Compound 37, (3-chloro-4-hydroxy-phenyl)-(2,3-dihydro-pyrido[4,3-b][1,4]oxazin-4-yl)-methanone] |  |  |  | 
18400 | 1310 (≈ 3060 µM) | 143 (≈ 333 µM) | 0.2 |  |  | O=C(Cc1cc(Br)c(O)c(Br)c1)N1CCOc2ccncc21 [Compound 42, 2-(3,5-dibromo-4-hydroxy-phenyl)-1-(2,3-dihydro-pyrido[4,3-b][1,4]oxazin-4-yl)-ethanone] |  |  |  | 
> 20000 | 6.4 (≈ 14.6 µM) | 330 (≈ 751 µM) | 0.0179 |  |  | N#Cc1cnc2c(c1)N(C(=O)c1cc(Br)c(O)c(Br)c1)CCO2 [Compound 47-2, 1-(3,5-dibromo-4-hydroxy-benzoyl)-2,3-dihydro-1H-pyrido[2,3-b][1,4]oxazin-7-carbonitrile] |  |  |  | 
> 20000 | 34.8 (≈ 83.8 µM) | 624 (≈ 1500 µM) | 0.128 |  |  | O=C(c1cc(Br)c(O)c(Br)c1)N1CCOc2ncncc21 [Compound 62, (3,5-dibromo-4-hydroxy-phenyl)-(6,7-dihydro-pyrimido[4,5-b][1,4]oxazin-5-yl)-methanone] |  |  |  | 
